Assay results from patent publication US10786505B2, “Administration of NEDD8-activating enzyme inhibitor and chemotherapeutic agents” (Millennium Pharmaceuticals, Inc., priority 2013, dated 2020).

Columns and labels:
BxPC3 = assay: In vitro cell viability combination assay (CellTiter-Glo); format: cell-based; settings: agent combined with MLN4924, vehicle DMSO, 72 hr
Text: (§1) After normalization, the controls are discarded.
(§2) Otherwise, the classification is “Additivity”.

MIA PaCa-2 = assay: as above; format: cell-based; settings: agent combined with MLN4924, vehicle DMSO, 72 hr
Text: as §1, §2

PANC1 = assay: as above; format: cell-based; settings: agent combined with MLN4924, vehicle DMSO, 72 hr
Text: as §1, §2

PHTX02B xenograft model = assay: Combination of gemcitabine and MLN4924 in PHTX02B xenograft model; format: in vivo, mice
Protocol: (§3) The PHTX02B breast xenograft model was established from a patient-derived tumor collected during surgery from a person with invasive ductal carcinoma classified as triple negative breast cancer (ER-/PR-/Her2-) by IHC. […] Gemcitabine (Gemzar, Henry Schein, Inc, Pittsburgh Pa., and Myoderm Medical, Norristown, Pa.) is formulated in 0.9% saline and administered by intraperitoneal injection (IP) q3Dx4 (every 3 days for a total of 4 doses) at 2.5 mg/kg or 10 mg/kg, or by IV injection twice weekly (BIW) at 20 mg/kg IVU. […] Tumors are measured twice weekly using a vernier caliper. […] Tumor size and body weight are measured approximately twice a week for the duration of the study. […] Tumor growth continued to be monitored after the dosing period in some studies. […] Average tumor volume is reported as a function of time for selected groups of selected studies in Figures A, B, and C. Measurements from day 0 to 18, 21 or 22 are analyzed as specified in Tables 4-9. […] For each animal, the log tumor volume at day 0 is subtracted from the log tumor volume on the subsequent days. This difference vs. time is used to calculate an area under the curve (AUC) for each animal using the trapezoid rule. In instances when an animal in a treatment group is removed early from the study, the last observed tumor value is carried forward through all subsequent time points. […] The standard error of the synergy score is computed based on the variation in the AUC values among the animals. […] Otherwise, the combination is classified as antagonistic.

[1] = tested on: PHTX249Pa xenograft model; assay: Combination of gemcitabine and MLN4924 in PHTX249Pa xenograft model; format: in vivo, mice
Protocol: as §3, with “PHTX249 Pa pancreatic” for “PHTX02B breast”, “pancreatic adenocarcinoma.” for “invasive ductal carcinoma classified as triple negative breast cancer (ER-/PR-/Her2-) by IHC.”

A549 = assay: In vitro cell viability combination assay (CellTiter-Glo); settings: agent combined with MLN4924, vehicle DMSO, 72 hr
Protocol: (§4) General Method: Cells are grown in their respective growth media, supplemented with 10% fetal bovine serum unless otherwise noted. […] A portion of each plate is used for positive controls (no agent is added), while another portion of each plate is used for negative controls (no cells are added). Viability is assessed with CellTiter-Glo® Cell Viability reagent used according to manufacturer's instructions (Promega). Luminescence is measured using a LEADseeker imaging system (GE Healthcare).
(§5) The viability data is normalized separately for each plate by scaling the data so that the median of the negative controls is 0 and the median of the positive controls is 100. More formally,
(§6) [formula] where Vi is the normalized viability of the i^th well, Ui is the raw viability measurement, median (U) is the median of the negative controls, and median (U+) is the median of the positive controls. After normalization, the controls are discarded.
(§7) where E1, E2, E3, E4, I1, I2, I3, S1, S2, S3, and S4 are parameters, CA and CB are the respective concentrations of agents A and B, and V is the normalized viability measurement. It is assumed that the error values are independent and identically distributed normal random variables.
(§8) The Combination Index is computed based on an isobologram, which is a slice of the dose response surface with constant viability. For the present analysis, the 50% isobologram, which is the dose contour that has 50% viability, is used. […] Since the choice of (DA, DB) can be arbitrary, the constraint DA/DB=EC50A/EC50B is used.
(§9) In such cases, Nonlinear Blending can be used as an alternative measure of synergy or additivity. Nonlinear Blending is found by considering a slice of the dose response surface that intersects both concentration axes and runs parallel to the viability axis. Let VA and VB be the viability where the slice intersects the drug A and B axes, respectively. Let Vmax and Vmin be the maximum and minimum viabilities along the slice. Let NLBS=min(VA,VB)−Vmin NLBA=Vmax−max(VA,VB) Define the Nonlinear Blending value to be NLBS if NLBS>NLBA and −NLBA otherwise.
(§10) After completing the analysis of individual plates, the results are combined across the replicates. For a given measure and a set of replicates, the overall mean and standard error are computed using weighted averaging. A null mean, which corresponded to an additive effect, is then compared with the overall mean. The null mean is 1 for the Combination Index and 0 for Nonlinear Blending. Next, a two sized Z-test is performed based on the estimated mean and standard error. This produces a p-value for each measure and each cell line.
(§11) After computing the mean, standard error, and p-value for each set of replicates, these values require interpretation. Thus, a standard procedure is used to produce a classification (synergy, additivity, subadditivity, antagonism, or inconclusive) in each case. If the Combination Index exists for more than half of the replicates, then these measures are used to make the classification.
(§12) Consider the case where the Combination Index is used to make the classification. If the p-value is greater than 0.05, the estimate for the Combination Index is not statistically different from 1. However, if the standard error is also very large, then the estimate is too uncertain to be informative. […] Otherwise, the classification is “Additivity”. When the p-value is less than 0.05, the estimate for the Combination Index is statistically different from 1. However, if the mean is still close to 1, then the difference is not of practical significance. Thus, the result is classified based on the mean. A mean in the range (0.8, 1.2) is considered close enough to 1 to be classified as Additivity. A mean in the range (0, 0.8) is considered low enough to be classified as Synergy. […] The threshold value of 2 can be derived from the definition of the Combination Index.

HCT116 = assay: as above; settings: agent combined with MLN4924, vehicle DMSO, 48 hr
Protocol: as §4, §5, §6, §7, §8, §9, §10, §11, §12

Nc1ccn([C@@H]2O[C@H](CO)[C@@H](O)C2(F)F)c(=O)n1 [gemcitabine]
Combination Index (BxPC3): 1.49
Nonlinear Blending (BxPC3): −26.0
Combination Index (MIA PaCa-2): 1.15
Nonlinear Blending (MIA PaCa-2): −8.1
Combination Index (PANC1): 0.24
Nonlinear Blending (PANC1): 19.4
average tumor volume day 22 (PHTX02B xenograft model; 2.5 mg/kg gemcitabine Q3Dx4 IP): 1386.3 mm^3
average tumor volume day 22 (PHTX02B xenograft model; 10 mg/kg gemcitabine Q3Dx4 IP): 769.4 mm^3
tumor growth during the treatment period (in words) (PHTX02B xenograft model; FIG. 2, MLN4924 SC 30 mg/kg BID, gemcitabine 10 mg/kg IP q3dx4, single agents or their combination): inhibited tumor growth compared to the control vehicle group
average tumor volume day 18 ([1]; PHTX249Pa xenograft, 20 mg/kg gemcitabine BIW IV): 585.1 mm^3
tumor growth compared to the control vehicle group (in words) ([1]; PHTX249 Pa xenograft, gemcitabine 20 mg/kg IV BIW, MLN4924 90 mg/kg SC BID BIW, single agents or their combination): inhibited tumor growth compared to the control vehicle group
Combination Index (A549): 1.44 ± 0.07
Nonlinear Blending (A549): −16 ± 3
Combination Index (HCT116): 0.49 ± 0.1
Nonlinear Blending (HCT116): 30 ± 3
